Data reported in patent publication US20250127170A1, “TRIAZINE HERBICIDAL COMPOUNDS” (SYNGENTA CROP PROTECTION AG, priority 2021, published 2025).

Columns and labels:
Format in all cases: in vivo
Details in all cases: 312 h, evaluated after 13 days, 100=total damage to plant, 0=no damage to plant
[1] = tested on: Setaria faberi (SETFA); assay: Post-emergence biological efficacy
Procedure: (§1) Seeds of weeds and/or crops were sown in standard soil in pots (Amaranthus palmeri (AMAPA), Chenopodium album (CHEAL), Euphorbia heterophylla (EPHHL), Ipomoea hederacea (IPOHE), Eleusine indica (ELEIN), Lolium perenne (LOLPE), Digitaria sanguinalis (DIGSA), Setaria faberi (SETFA), Echinochloa crus-galli (ECHCG)). After cultivation for 14 days under controlled conditions in a glasshouse (at 24/19° C., day/night; 16 hours light), the plants were sprayed with an aqueous spray solution derived from the formulation of the technical active ingredient in a small amount of acetone and a special solvent and emulsifier mixture referred to as IF50 (11.12% Emulsogen EL360™+44.44% N-methylpyrrolidone+44.44% Dowanol DPM glycol ether), to create a 50 g/l solution which was then diluted using 0.2% Genapol XO80 as diluent to give the desired final dose of test compound. The test plants were then grown under controlled conditions in the glasshouse (at 24/18° C., day/night; 15 hours light; 50% humidity) and watered twice daily. After 13 days the test was evaluated (100=total damage to plant; 0=no damage to plant).

[2] = tested on: Chenopodium album (CHEAL); assay: Post-emergence biological efficacy
Procedure: as §1

[3] = tested on: Eleusine indica (ELEIN); assay: Post-emergence biological efficacy
Procedure: as §1

[4] = tested on: Amaranthus palmeri (AMAPA); assay: Post-emergence biological efficacy
Procedure: as §1

[5] = tested on: Digitaria sanguinalis (DIGSA); assay: Post-emergence biological efficacy
Procedure: as §1

[6] = tested on: Ipomoea hederacea (IPOHE); assay: Post-emergence biological efficacy
Procedure: as §1

[7] = tested on: Euphorbia heterophylla (EPHHL); assay: Post-emergence biological efficacy
Procedure: as §1

[8] = tested on: Echinochloa crus-galli (ECHCG); assay: Post-emergence biological efficacy
Procedure: as §1

[9] = tested on: Lolium perenne (LOLPE); assay: Post-emergence biological efficacy
Procedure: as §1

[10] = tested on: Setaria faberi (SETFA); assay: Pre-emergence biological efficacy
Procedure: (§2) Seeds of weeds and/or crops were sown in standard soil in pots (Amaranthus palmeri (AMAPA), Lolium perenne (LOLPE), Euphorbia heterophylla (EPHHL), Ipomoea hederacea (IPOHE), Setaria faberi (SETFA), Echinochloa crus-galli (ECHCG)). After cultivation for one day under controlled conditions in a glasshouse (at 24/19° C., day/night; 16 hours light), the plants were sprayed with an aqueous spray solution derived from the formulation of the technical active ingredient in a small amount of acetone and a special solvent and emulsifier mixture referred to as IF50 (11.12% Emulsogen EL360™+44.44% N-methylpyrrolidone+44.44% Dowanol DPM glycol ether), to create a 50 g/l solution which was then diluted using 0.2% Genapol XO80 as diluent to give the desired final dose of test compound.
(§3) The test plants were then grown under controlled conditions in the glasshouse (at 24/18° C., day/night; 15 hours light; 50% humidity) and watered twice daily. After 13 days the test was evaluated (100=total damage to plant; 0=no damage to plant).

[11] = tested on: Amaranthus palmeri (AMAPA); assay: Pre-emergence biological efficacy
Procedure: as §2, §3

[12] = tested on: Ipomoea hederacea (IPOHE); assay: Pre-emergence biological efficacy
Procedure: as §2, §3

[13] = tested on: Euphorbia heterophylla (EPHHL); assay: Pre-emergence biological efficacy
Procedure: as §2, §3

[14] = tested on: Echinochloa crus-galli (ECHCG); assay: Pre-emergence biological efficacy
Procedure: as §2, §3

[15] = tested on: Lolium perenne (LOLPE); assay: Pre-emergence biological efficacy
Procedure: as §2, §3

Row | SMILES | pest or weed control at 250 g/ha [1] [%] | pest or weed control at 250 g/ha [2] [%] | pest or weed control at 250 g/ha [3] [%] | pest or weed control at 250 g/ha [4] [%] | pest or weed control at 250 g/ha [5] [%] | pest or weed control at 250 g/ha [6] [%] | pest or weed control at 250 g/ha [7] [%] | pest or weed control at 250 g/ha [8] [%] | pest or weed control at 250 g/ha [9] [%] | pest or weed control at 250 g/ha [10] [%] | pest or weed control at 250 g/ha [11] [%] | pest or weed control at 250 g/ha [12] [%] | pest or weed control at 250 g/ha [13] [%] | pest or weed control at 250 g/ha [14] [%] | pest or weed control at 250 g/ha [15] [%]
1 | CCOC(=O)C(CC)OC(=O)c1cc(-n2c(=O)n(C)c(=S)n(C)c2=O)c(F)cc1Cl (stereo not shown) [Compound 1-114, 1-Ethoxycarbonylpropyl 2-chloro-5-(3,5-dimethyl-2,6-dioxo-4-thioxo-1,3,5-triazinan-1-yl)-4-fluoro-benzoate] | 30 | 70 | 20 | 20 | 20 | 40 | 70 | 60 | 30 | 10 | 100 | 10 | 40 | 100 | 70
2 | CCNC(=O)C(C)(C)OC(=O)c1cc(-n2c(=O)n(C)c(=S)n(C)c2=O)c(F)cc1Cl [Compound 1-168, [2-(ethylamino)-1,1-dimethyl-2-oxo-ethyl] 2-chloro-5-(3,5-dimethyl-2,6-dioxo-4-thioxo-1,3,5-triazinan-1-yl)-4-fluoro-benzoate] | 100 | 100 | 100 | 100 | 100 | 100 | 100 | 100 | 100 | 100 | 100 | 90 | 100 | 100 | 100
3 | CCOC(=O)C1(NC(=O)c2cc(-n3c(=O)n(C)c(=S)n(C)c3=O)c(F)cc2Cl)CC1 [Compound 1-240, ethyl 1-[[2-chloro-5-(3,5-dimethyl-2,6-dioxo-4-thioxo-1,3,5-triazinan-1-yl)-4-fluoro-benzoyl]amino]cyclopropanecarboxylate] | 80 | 100 | 100 | 100 | 70 | 60 | 100 | 30 | 90 | 70 | 100 | 10 | 100 | 30 | 30
4 | CCOC(=O)C1(N(C)C(=O)c2cc(-n3c(=O)n(C)c(=S)n(C)c3=O)c(F)cc2Cl)CC1 [Compound 1-252, Ethyl 1-[[2-chloro-5-(3,5-dimethyl-2,6-dioxo-4-thioxo-1,3,5-triazinan-1-yl)-4-fluoro-benzoyl]-methyl-amino]cyclopropanecarboxylate] | 0 | 70 | 50 | 50 | 0 | 30 | 40 | 0 | 40 | – | 100 | – | – | – | –
5 | CCOC(=O)CCNC(=O)c1cc(-n2c(=O)n(C)c(=S)n(C)c2=O)c(F)cc1Cl [Compound 1-342, Ethyl 3-[[2-chloro-5-(3,5-dimethyl-2,6-dioxo-4-thioxo-1,3,5-triazinan-1-yl)-4-fluoro-benzoyl]amino]propanoate] | 80 | 30 | 10 | 30 | 50 | 70 | 40 | 80 | 20 | 80 | 80 | 60 | 90 | 90 | 70
